In assay [1] the target is T1, Amyloid-beta precursor protein (Homo sapiens, UniProt P05067). Nature of the assay: Inhibition of amyloid beta (1 to 42) (unknown origin) aggregation measured after 24 hrs by Thioflavin T-based fluorometric assay.
Assay [2] concerns the target T1, Amyloid-beta precursor protein. The assay is described as follows: Inhibition of amyloid beta (1 to 42) (unknown origin) aggregation at 50 uM measured after 3 hrs by Thioflavin T-based fluorometric assay.
Another assay addresses Acetylcholinesterase (Homo sapiens, UniProt P22303). The assay is described as follows: Inhibition of human AChE assessed as hydrolytic activity using acetylthiocholine iodide as substrate measured for 15 mins by Ellmans assay. For orientation: In Ellman's method for cholinesterases, released thiocholine reacts with DTNB.
In a further assay the target is Cholinesterase (Homo sapiens, UniProt P06276). The assay is described as follows: Inhibition of human BuChE assessed as hydrolytic activity using butyrylthiocholine iodide as substrate measured for 15 mins by Ellmans assay.
Assay [3] deals with T1, Amyloid-beta precursor protein. The assay is described as follows: Inhibition of human amyloid beta (1 to 42) aggregation at 100 uM measured after 72 hrs by Thioflavin T-based fluorometric assay.

The record followed here is ChEMBL document CHEMBL3779862, “Amyloid cascade in Alzheimer's disease: Recent advances in medicinal chemistry” (Eur J Med Chem, 2016).

Cholinesterase, sequence (P06276 whole entry): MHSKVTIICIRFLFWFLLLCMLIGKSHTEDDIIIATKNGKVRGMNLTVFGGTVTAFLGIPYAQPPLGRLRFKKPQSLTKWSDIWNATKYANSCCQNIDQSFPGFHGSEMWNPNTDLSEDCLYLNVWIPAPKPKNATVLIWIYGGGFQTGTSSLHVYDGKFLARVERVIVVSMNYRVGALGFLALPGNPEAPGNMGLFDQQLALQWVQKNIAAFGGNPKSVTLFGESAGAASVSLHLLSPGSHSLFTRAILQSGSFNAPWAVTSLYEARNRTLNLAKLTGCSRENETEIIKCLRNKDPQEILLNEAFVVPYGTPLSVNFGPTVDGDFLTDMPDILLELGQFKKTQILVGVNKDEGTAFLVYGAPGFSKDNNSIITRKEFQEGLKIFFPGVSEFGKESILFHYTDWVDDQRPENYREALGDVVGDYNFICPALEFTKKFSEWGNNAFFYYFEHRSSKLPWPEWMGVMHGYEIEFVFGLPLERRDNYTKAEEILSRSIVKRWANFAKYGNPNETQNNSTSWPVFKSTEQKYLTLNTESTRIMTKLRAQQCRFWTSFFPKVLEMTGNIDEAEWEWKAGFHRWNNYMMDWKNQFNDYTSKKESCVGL
Acetylcholinesterase, sequence (P22303 whole entry): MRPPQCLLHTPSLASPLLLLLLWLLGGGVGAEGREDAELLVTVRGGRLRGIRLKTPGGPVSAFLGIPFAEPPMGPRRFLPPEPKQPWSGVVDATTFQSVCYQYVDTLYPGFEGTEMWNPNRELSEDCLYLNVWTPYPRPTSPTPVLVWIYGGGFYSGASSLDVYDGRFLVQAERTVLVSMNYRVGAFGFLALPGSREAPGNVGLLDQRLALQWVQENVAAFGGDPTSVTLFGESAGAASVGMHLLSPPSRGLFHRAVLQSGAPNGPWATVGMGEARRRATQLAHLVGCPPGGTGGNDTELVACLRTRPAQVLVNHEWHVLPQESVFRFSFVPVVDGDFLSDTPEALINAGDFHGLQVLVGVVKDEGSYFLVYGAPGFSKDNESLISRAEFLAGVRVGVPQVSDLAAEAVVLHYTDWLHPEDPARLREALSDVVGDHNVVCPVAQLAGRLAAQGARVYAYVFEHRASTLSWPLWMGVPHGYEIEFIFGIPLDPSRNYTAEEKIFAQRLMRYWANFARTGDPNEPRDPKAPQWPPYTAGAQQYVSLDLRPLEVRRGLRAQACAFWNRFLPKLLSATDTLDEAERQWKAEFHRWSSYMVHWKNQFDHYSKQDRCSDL
T1 sequence (P05067 whole entry): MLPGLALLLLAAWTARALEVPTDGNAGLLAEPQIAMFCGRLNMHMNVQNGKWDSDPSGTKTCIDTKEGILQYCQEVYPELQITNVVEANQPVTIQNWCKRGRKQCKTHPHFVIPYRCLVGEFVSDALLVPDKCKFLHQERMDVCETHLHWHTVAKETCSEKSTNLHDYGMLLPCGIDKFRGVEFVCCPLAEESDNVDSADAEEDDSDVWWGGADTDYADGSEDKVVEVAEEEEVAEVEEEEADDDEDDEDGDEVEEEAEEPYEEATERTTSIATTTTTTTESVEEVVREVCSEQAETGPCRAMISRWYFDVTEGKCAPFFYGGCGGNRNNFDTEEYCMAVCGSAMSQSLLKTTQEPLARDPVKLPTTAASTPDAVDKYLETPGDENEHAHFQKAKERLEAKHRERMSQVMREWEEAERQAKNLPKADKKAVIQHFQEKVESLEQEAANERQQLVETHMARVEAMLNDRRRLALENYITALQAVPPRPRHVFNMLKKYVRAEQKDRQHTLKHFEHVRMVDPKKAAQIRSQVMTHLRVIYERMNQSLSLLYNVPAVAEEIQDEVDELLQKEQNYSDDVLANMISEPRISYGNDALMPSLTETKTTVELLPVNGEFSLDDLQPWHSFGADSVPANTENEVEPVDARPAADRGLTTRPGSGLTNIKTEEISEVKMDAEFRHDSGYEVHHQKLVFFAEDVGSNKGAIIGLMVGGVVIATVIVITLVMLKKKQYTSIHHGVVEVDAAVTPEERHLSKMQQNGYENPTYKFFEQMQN

The IC50 is the concentration that gives 50% inhibition. In turn, `Cc1ccc(-c2cc(NCCNc3cc(-c4cccs4)[nH]n3)n[nH]2)cc1` had an IC50 in assay [1] of 29 µM.

As usually defined, the inhibition is the percentage by which the read-out fell short of the control. Low readings indicate a response near the control, high ones a response far below the control. With `O=C(NC1C2CC3CC(C2)CC1C3)c1nc(Cc2ccccc2)cc(Oc2ccccc2)n1` (centres undefined), the inhibition in assay [2] came to 47%. `C[N+](C)(C)CCOC(=O)c1ccc(Oc2nc(Oc3ccc(C(=O)OCC[N+](C)(C)C)cc3)nc(Oc3ccc(C(=O)OCC[N+](C)(C)C)cc3)n2)cc1`: the IC50 turned out to be 0.3 µM at Acetylcholinesterase and 3.9 µM at Cholinesterase. In assay [3], this compound gave an inhibition of 50.9%.

On to `Fc1ccc(-c2cc(NCCNc3cc(-c4ccc(F)cc4)[nH]n3)n[nH]2)cc1`, for which the IC50 in assay [1] was determined as 40.5 µM. In assay [2], `CC(C)CCNC(=O)c1cc(Cc2ccccc2)cc(Oc2ccccc2)n1` came in with an inhibition of 71%.

For `COc1nc(Oc2ccc(C(=O)OCC(C)N(C)C)cc2)nc(Oc2ccc(C(=O)OCC(C)N(C)C)cc2)n1` (centres undefined), the IC50 at Acetylcholinesterase is 111 µM; at Cholinesterase, over 200 µM. The inhibition in assay [3] is 58.4%. As for `CN(C)c1ccc(-c2cc(NCCNc3cc(-c4ccc(N(C)C)cc4)[nH]n3)n[nH]2)cc1`, in assay [1], the midpoint of inhibition, the IC50, lay at 7.5 µM.

`CC(COC(=O)c1ccc(Oc2nc(Oc3ccc(C(=O)OCC(C)N(C)C)cc3)nc(Oc3ccc(C(=O)OCC(C)N(C)C)cc3)n2)cc1)N(C)C` (centres undefined): the figures for the IC50 on Acetylcholinesterase and at Cholinesterase were 80.8 µM and 164 µM, respectively. In assay [3], this compound came in with an inhibition of 68.5%.
